{"source": "ChEMBL document CHEMBL1201862", "about": "“PubChem BioAssay data set” (2004)", "assay_in_all_cases": "NCI anticancer screen, dose series, 48 h", "key": {"COLO 205": {"test_system": "COLO 205"}, "MDA-MB-231": {"test_system": "MDA-MB-231"}, "Malme-3M": {"test_system": "Malme-3M"}, "SN12C": {"test_system": "SN12C"}, "SK-MEL-2": {"test_system": "SK-MEL-2"}, "SK-MEL-28": {"test_system": "SK-MEL-28"}, "NCI-H226": {"test_system": "NCI-H226"}, "HCT-15": {"test_system": "HCT-15"}, "UACC-62": {"test_system": "UACC-62"}, "UO-31": {"test_system": "UO-31"}, "HCT-116": {"test_system": "HCT-116"}, "HCC 2998": {"test_system": "HCC 2998"}, "MDA-MB-435": {"test_system": "MDA-MB-435"}, "OVCAR-5": {"test_system": "OVCAR-5"}, "SF-268": {"test_system": "SF-268"}, "NCI-H522": {"test_system": "NCI-H522"}, "SF-295": {"test_system": "SF-295"}, "PC-3": {"test_system": "PC-3"}, "OVCAR-4": {"test_system": "OVCAR-4"}, "NCI-H460": {"test_system": "NCI-H460"}, "786-0": {"test_system": "786-0"}, "DU-145": {"test_system": "DU-145"}, "OVCAR-3": {"test_system": "OVCAR-3"}, "KM12": {"test_system": "KM12"}, "HOP-62": {"test_system": "HOP-62"}, "A549": {"test_system": "A549"}, "IGROV-1": {"test_system": "IGROV-1"}, "SK-OV-3": {"test_system": "SK-OV-3"}, "LOX IMVI": {"test_system": "LOX IMVI"}, "SR": {"test_system": "SR"}, "TK-10": {"test_system": "TK-10"}, "Hs-578T": {"test_system": "Hs-578T"}, "HT-29": {"test_system": "HT-29"}, "K562": {"test_system": "K562"}, "ACHN": {"test_system": "ACHN"}, "EKVX": {"test_system": "EKVX"}, "UACC-257": {"test_system": "UACC-257"}, "RXF 393": {"test_system": "RXF 393"}, "NCI/ADR-RES": {"test_system": "NCI/ADR-RES"}, "MDA-N": {"test_system": "MDA-N"}, "U-251": {"test_system": "U-251"}, "SK-MEL-5": {"test_system": "SK-MEL-5"}, "SNB-75": {"test_system": "SNB-75"}, "NCI-H23": {"test_system": "NCI-H23"}, "M14": {"test_system": "M14"}, "SNB-19": {"test_system": "SNB-19"}, "CCRF-CEM": {"test_system": "CCRF-CEM"}, "T47D": {"test_system": "T47D"}, "SF-539": {"test_system": "SF-539"}, "HL-60": {"test_system": "HL-60"}, "MOLT-4": {"test_system": "MOLT-4"}, "BT-549": {"test_system": "BT-549"}, "MCF7": {"test_system": "MCF7"}, "CAKI-1": {"test_system": "CAKI-1"}, "RPMI-8226": {"test_system": "RPMI-8226"}, "SW-620": {"test_system": "SW-620"}, "OVCAR-8": {"test_system": "OVCAR-8"}}, "note": "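Values below derive from 48-hour exposures of cells grown in 96-well plates, with endpoints linearly interpolated between the two concentrations bracketing the appropriate inhibition level. GI50 marks 50% less growth.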 Active and inactive are the calls of the source. Rule as the data show it: active = GI50 up to about 1.1 µM and inactive = higher.", "data": [{"compound": "COc1ccc(N(C)S(=O)(=O)c2ccccc2)cc1", "values": [{"measurement": "GI50", "setting": "COLO 205", "value": "> 100 µM (inactive)"}, {"measurement": "GI50", "setting": "MDA-MB-231", "value": "> 100 µM (inactive)"}, {"measurement": "GI50", "setting": "Malme-3M", "value": "> 100 µM (inactive)"}, {"measurement": "GI50", "setting": "SN12C", "value": "> 100 µM (inactive)"}, {"measurement": "GI50", "setting": "SK-MEL-2", "value": "> 100 µM (inactive)"}, {"measurement": "GI50", "setting": "SK-MEL-28", "value": "> 100 µM (inactive)"}, {"measurement": "GI50", "setting": "NCI-H226", "value": "> 100 µM (inactive)"}, {"measurement": "GI50", "setting": "HCT-15", "value": "> 100", "unit": "µM"}, {"measurement": "GI50", "setting": "UACC-62", "value": "75 µM (inactive)"}, {"measurement": "GI50", "setting": "UO-31", "value": "> 100 µM (inactive)"}, {"measurement": "GI50", "setting": "HCT-116", "value": "> 100 µM (inactive)"}, {"measurement": "GI50", "setting": "HCC 2998", "value": "56 µM (inactive)"}, {"measurement": "GI50", "setting": "MDA-MB-435", "value": "59.2 µM (inactive)"}, {"measurement": "GI50", "setting": "OVCAR-5", "value": "> 100 µM (inactive)"}, {"measurement": "GI50", "setting": "SF-268", "value": "> 100 µM (inactive)"}, {"measurement": "GI50", "setting": "NCI-H522", "value": "> 100 µM (inactive)"}, {"measurement": "GI50", "setting": "SF-295", "value": "> 100 µM (inactive)"}, {"measurement": "GI50", "setting": "PC-3", "value": "72.1 µM (inactive)"}, {"measurement": "GI50", "setting": "OVCAR-4", "value": "> 100 µM (inactive)"}, {"measurement": "GI50", "setting": "NCI-H460", "value": "94.8 µM (inactive)"}, {"measurement": "GI50", "setting": "786-0", "value": "> 100 µM (inactive)"}, {"measurement": "GI50", "setting": "DU-145", "value": "> 100 µM (inactive)"}, {"measurement": "GI50", "setting": "OVCAR-3", "value": "> 100 µM (inactive)"}, {"measurement": "GI50", "setting": "KM12", "value": "> 100 µM (inactive)"}, {"measurement": "GI50", "setting": "HOP-62", "value": "> 100 µM (inactive)"}, {"measurement": "GI50", "setting": "A549", "value": "> 100 µM (inactive)"}, {"measurement": "GI50", "setting": "IGROV-1", "value": "> 100 µM (inactive)"}, {"measurement": "GI50", "setting": "SK-OV-3", "value": "> 100 µM (inactive)"}, {"measurement": "GI50", "setting": "LOX IMVI", "value": "> 100 µM (inactive)"}, {"measurement": "GI50", "setting": "SR", "value": "87.9 µM (inactive)"}, {"measurement": "GI50", "setting": "TK-10", "value": "> 100 µM (inactive)"}, {"measurement": "GI50", "setting": "Hs-578T", "value": "> 100 µM (inactive)"}, {"measurement": "GI50", "setting": "HT-29", "value": "> 100 µM (inactive)"}, {"measurement": "GI50", "setting": "K562", "value": "28.5 µM (inactive)"}, {"measurement": "GI50", "setting": "ACHN", "value": "> 100 µM (inactive)"}, {"measurement": "GI50", "setting": "EKVX", "value": "> 100 µM (inactive)"}, {"measurement": "GI50", "setting": "UACC-257", "value": "> 100 µM (inactive)"}, {"measurement": "GI50", "setting": "RXF 393", "value": "> 100 µM (inactive)"}, {"measurement": "GI50", "setting": "NCI/ADR-RES", "value": "> 100 µM (inactive)"}, {"measurement": "GI50", "setting": "MDA-N", "value": "> 100 µM (inactive)"}, {"measurement": "GI50", "setting": "U-251", "value": "> 100 µM (inactive)"}, {"measurement": "GI50", "setting": "SK-MEL-5", "value": "61.8 µM (inactive)"}, {"measurement": "GI50", "setting": "SNB-75", "value": "> 100 µM (inactive)"}, {"measurement": "GI50", "setting": "NCI-H23", "value": "67.1 µM (inactive)"}, {"measurement": "GI50", "setting": "M14", "value": "> 100 µM (inactive)"}, {"measurement": "GI50", "setting": "SNB-19", "value": "> 100 µM (inactive)"}, {"measurement": "GI50", "setting": "CCRF-CEM", "value": "> 100 µM (inactive)"}, {"measurement": "GI50", "setting": "T47D", "value": "53.1 µM (inactive)"}, {"measurement": "GI50", "setting": "SF-539", "value": "> 100 µM (inactive)"}, {"measurement": "GI50", "setting": "HL-60", "value": "> 100 µM (inactive)"}, {"measurement": "GI50", "setting": "MOLT-4", "value": "29.4 µM (inactive)"}, {"measurement": "GI50", "setting": "BT-549", "value": "> 100 µM (inactive)"}, {"measurement": "GI50", "setting": "MCF7", "value": "> 100 µM (inactive)"}, {"measurement": "GI50", "setting": "CAKI-1", "value": "> 100 µM (inactive)"}, {"measurement": "GI50", "setting": "RPMI-8226", "value": "86.9 µM (inactive)"}, {"measurement": "GI50", "setting": "SW-620", "value": "> 100 µM (inactive)"}, {"measurement": "GI50", "setting": "OVCAR-8", "value": "> 100 µM (inactive)"}]}]}
